In US10710978B2, “STK4 inhibitors for treatment of hematologic malignancies” (Dana-Farber Cancer Institute, Inc., priority 2015, dated 2020):
Where two headings read alike, the source gives them in different places.

How the values were obtained:
Test in all cases: KiNativ assay
Format in all cases: binding
Settings in all cases: H929 live cell
IKKe, TBK1 = system: IKKe, TBK1
Description: (§1) Biochemical IC50s of the compounds of the present disclosure against various kinases were measured in a KiNativ assay. Compounds were screened in duplicate at 10 μM in H929 live cell. IC50 was measured via Mass spectroscopy (MS).

JAK3 domain2 = JAK3 domain2 (Homo sapiens (Human), UniProt P52333)
Description: as §1

MAPKAPK2, MAPKAPK3 = system: MAPKAPK2, MAPKAPK3
Description: as §1

p70S6K = p70S6K (Homo sapiens (Human), UniProt P23443)
Description: as §1

MAST3 = MAST3 (Homo sapiens (Human), UniProt O60307)
Description: as §1

SLK = SLK (Homo sapiens (Human), UniProt Q9H2G2)
Description: as §1

MLK3 = MLK3 (Homo sapiens (Human), UniProt Q16584)
Description: as §1

[1] = system: RSK1 domain1, RSK2 domain1, RSK3 domain1
Description: as §1

Erk1 = Erk1 (Homo sapiens (Human), UniProt P27361)
Description: as §1

MARK2 = MARK2 (Homo sapiens (Human), UniProt Q7KZI7)
Description: as §1

RSK2 domain2 = RSK2 domain2 (Homo sapiens (Human), UniProt P51812)
Description: as §1

MASTL = MASTL (Homo sapiens (Human), UniProt Q96GX5)
Description: as §1

PIK3CB = PIK3CB (Homo sapiens (Human), UniProt P42338)
Description: as §1

MST2 = MST2 (Homo sapiens (Human), UniProt Q13188)
Description: as §1

PITSLRE = system: PITSLRE
Description: as §1

TLK2 = TLK2 (Homo sapiens (Human), UniProt Q86UE8)
Description: as §1

MARK4 = MARK4 (Homo sapiens (Human), UniProt Q96L34)
Description: as §1

CLK2 = CLK2 (Homo sapiens (Human), UniProt P49760)
Description: as §1

STLK6 = STLK6 (Homo sapiens (Human), UniProt Q9C0K7)
Description: as §1

NEK1 = NEK1 (Homo sapiens (Human), UniProt Q96PY6)
Description: as §1

PKR = PKR (Homo sapiens (Human), UniProt P19525)
Description: as §1

IRAK4 = IRAK4 (Homo sapiens (Human), UniProt Q9NWZ3)
Description: as §1

NDR1 = NDR1 (Homo sapiens (Human), UniProt Q15208)
Description: as §1

CDK11, CDK8 = system: CDK11, CDK8
Description: as §1

p38d, p38g = system: p38d, p38g
Description: as §1

MST3 = MST3 (Homo sapiens (Human), UniProt Q9Y6E0)
Description: as §1

CDC2 = CDC2 (Homo sapiens (Human), UniProt P06493)
Description: as §1

NDR2 = NDR2 (Homo sapiens (Human), UniProt Q9Y2H1)
Description: as §1

MST1, MST2 = system: MST1, MST2
Description: as §1

PIP4K2C = PIP4K2C (Homo sapiens (Human), UniProt Q8TBX8)
Description: as §1

PI4KB = PI4KB (Homo sapiens (Human), UniProt Q9UBF8)
Description: as §1

PIP5K3 = PIP5K3 (Homo sapiens (Human), UniProt Q9Y2I7)
Description: as §1

ATR = ATR (Homo sapiens (Human), UniProt Q13535)
Description: as §1

ACK = ACK (Homo sapiens (Human), UniProt Q07912)
Description: as §1

[2] = range class, read-out: % inhibition

Chain of NDR1 (Q15208 whole entry): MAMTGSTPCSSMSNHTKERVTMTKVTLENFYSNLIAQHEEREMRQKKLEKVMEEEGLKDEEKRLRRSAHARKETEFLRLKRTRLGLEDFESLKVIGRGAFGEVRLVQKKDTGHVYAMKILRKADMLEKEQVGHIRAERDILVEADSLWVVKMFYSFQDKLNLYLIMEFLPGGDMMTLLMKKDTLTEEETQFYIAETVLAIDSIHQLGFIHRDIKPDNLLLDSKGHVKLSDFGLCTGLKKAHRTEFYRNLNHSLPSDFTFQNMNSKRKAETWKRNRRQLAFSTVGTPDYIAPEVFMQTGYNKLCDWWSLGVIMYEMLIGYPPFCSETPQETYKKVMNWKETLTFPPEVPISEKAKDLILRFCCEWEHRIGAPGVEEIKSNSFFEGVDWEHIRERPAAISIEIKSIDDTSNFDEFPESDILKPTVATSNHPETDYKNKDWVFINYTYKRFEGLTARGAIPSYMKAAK
Chain of PIP5K3 (Q9Y2I7 whole entry): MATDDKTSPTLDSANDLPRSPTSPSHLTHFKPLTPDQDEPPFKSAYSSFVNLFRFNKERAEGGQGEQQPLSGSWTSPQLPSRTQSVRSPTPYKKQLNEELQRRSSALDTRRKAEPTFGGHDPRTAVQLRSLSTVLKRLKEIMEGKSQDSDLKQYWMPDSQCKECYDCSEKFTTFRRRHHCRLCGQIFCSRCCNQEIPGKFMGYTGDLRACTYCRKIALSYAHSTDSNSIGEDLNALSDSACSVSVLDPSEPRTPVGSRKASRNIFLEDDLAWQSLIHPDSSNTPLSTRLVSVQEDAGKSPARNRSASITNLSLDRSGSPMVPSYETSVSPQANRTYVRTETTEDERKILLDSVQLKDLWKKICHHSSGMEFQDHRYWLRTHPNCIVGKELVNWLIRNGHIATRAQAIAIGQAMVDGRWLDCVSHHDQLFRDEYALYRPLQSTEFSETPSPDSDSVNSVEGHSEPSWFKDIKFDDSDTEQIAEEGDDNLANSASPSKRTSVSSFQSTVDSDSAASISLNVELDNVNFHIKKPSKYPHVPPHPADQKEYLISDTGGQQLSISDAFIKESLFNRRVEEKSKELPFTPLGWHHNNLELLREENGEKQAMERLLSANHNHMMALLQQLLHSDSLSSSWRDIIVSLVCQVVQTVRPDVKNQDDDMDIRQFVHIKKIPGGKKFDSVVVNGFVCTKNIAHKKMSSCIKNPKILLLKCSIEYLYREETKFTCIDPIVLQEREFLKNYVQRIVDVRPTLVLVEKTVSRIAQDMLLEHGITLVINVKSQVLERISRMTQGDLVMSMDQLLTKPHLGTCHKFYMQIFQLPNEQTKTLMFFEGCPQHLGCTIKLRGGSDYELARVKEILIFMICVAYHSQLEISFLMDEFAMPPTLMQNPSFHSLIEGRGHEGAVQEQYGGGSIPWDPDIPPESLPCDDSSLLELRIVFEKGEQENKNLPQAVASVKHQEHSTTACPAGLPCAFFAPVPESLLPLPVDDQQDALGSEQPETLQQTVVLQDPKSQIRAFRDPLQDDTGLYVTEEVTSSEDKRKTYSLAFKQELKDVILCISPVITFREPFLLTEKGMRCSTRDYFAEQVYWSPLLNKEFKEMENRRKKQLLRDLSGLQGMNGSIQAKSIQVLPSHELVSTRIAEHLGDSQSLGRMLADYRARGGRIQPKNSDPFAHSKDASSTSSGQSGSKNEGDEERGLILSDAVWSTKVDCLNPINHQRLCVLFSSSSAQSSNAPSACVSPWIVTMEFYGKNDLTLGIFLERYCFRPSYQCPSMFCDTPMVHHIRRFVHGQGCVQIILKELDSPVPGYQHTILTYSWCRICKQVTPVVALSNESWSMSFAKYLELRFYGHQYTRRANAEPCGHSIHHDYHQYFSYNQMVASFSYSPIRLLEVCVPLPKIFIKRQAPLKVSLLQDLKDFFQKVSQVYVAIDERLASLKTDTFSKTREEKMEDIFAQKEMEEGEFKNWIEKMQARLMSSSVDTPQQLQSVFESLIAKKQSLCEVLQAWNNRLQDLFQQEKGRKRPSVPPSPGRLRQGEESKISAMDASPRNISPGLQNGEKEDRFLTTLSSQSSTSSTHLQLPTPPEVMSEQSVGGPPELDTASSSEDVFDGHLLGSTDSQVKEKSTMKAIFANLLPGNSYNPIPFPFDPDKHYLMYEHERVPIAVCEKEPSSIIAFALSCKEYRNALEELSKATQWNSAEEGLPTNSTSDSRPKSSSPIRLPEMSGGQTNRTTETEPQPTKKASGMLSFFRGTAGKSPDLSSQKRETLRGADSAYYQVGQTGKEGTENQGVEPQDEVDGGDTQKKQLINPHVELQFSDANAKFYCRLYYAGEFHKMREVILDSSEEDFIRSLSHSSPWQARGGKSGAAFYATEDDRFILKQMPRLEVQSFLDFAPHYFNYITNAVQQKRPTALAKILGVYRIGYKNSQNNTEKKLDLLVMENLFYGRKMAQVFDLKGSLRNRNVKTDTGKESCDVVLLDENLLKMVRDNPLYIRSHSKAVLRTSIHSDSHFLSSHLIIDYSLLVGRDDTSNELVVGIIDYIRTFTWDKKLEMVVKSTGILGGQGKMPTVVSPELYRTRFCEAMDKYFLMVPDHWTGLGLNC
Chain of MASTL (Q96GX5 whole entry): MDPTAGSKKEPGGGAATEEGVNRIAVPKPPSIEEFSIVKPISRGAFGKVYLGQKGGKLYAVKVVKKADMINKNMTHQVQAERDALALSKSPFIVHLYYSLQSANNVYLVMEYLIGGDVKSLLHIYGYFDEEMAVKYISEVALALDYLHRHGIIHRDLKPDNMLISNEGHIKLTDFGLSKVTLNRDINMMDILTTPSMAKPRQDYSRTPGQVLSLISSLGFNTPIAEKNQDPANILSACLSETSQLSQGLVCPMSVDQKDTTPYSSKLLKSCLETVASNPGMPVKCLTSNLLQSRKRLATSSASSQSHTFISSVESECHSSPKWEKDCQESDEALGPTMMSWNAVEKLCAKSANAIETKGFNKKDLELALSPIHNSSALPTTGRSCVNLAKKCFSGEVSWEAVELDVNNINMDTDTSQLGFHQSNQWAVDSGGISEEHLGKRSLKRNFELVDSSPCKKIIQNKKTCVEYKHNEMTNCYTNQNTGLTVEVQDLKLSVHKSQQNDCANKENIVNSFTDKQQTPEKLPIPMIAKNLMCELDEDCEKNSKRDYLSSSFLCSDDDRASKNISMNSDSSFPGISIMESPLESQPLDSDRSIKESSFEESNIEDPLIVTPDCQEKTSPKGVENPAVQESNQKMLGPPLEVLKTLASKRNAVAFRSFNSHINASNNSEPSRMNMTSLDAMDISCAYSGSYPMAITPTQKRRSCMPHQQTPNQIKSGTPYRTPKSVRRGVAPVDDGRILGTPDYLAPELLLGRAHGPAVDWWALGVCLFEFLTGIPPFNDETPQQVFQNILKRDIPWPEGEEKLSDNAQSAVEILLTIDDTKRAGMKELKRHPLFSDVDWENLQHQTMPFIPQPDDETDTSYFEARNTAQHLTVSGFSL
Chain of TLK2 (Q86UE8 whole entry): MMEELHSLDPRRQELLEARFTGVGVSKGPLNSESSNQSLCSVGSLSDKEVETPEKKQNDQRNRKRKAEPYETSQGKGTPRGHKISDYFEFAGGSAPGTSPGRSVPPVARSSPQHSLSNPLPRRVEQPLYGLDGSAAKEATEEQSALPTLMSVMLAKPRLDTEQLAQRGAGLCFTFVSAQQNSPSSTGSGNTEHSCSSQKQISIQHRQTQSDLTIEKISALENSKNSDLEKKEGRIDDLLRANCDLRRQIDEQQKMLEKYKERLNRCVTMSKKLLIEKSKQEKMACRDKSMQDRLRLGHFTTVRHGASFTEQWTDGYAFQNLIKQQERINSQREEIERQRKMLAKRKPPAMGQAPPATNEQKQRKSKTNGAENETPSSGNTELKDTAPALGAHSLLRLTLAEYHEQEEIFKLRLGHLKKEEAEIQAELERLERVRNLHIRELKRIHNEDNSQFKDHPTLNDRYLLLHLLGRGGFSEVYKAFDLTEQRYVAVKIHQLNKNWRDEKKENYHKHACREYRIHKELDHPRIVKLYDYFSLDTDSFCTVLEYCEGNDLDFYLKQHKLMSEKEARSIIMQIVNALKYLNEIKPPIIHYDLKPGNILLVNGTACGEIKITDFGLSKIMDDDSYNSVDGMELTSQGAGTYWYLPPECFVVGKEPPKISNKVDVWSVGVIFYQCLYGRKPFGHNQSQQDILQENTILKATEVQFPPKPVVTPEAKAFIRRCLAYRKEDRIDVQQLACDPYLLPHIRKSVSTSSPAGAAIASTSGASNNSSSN
Chain of IRAK4 (Q9NWZ3 whole entry): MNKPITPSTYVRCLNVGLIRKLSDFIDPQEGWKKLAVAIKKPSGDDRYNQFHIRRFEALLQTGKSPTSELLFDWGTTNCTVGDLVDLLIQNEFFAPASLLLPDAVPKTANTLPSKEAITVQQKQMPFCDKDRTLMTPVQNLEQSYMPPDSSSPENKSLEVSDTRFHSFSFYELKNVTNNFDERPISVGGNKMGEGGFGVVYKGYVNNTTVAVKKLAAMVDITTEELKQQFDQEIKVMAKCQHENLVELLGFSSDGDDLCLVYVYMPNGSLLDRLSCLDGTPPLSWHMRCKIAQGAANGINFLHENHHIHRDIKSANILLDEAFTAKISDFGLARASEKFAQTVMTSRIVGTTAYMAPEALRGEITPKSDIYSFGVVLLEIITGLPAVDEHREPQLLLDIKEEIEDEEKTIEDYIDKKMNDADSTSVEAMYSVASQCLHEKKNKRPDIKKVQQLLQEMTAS
Chain of STLK6 (Q9C0K7 whole entry): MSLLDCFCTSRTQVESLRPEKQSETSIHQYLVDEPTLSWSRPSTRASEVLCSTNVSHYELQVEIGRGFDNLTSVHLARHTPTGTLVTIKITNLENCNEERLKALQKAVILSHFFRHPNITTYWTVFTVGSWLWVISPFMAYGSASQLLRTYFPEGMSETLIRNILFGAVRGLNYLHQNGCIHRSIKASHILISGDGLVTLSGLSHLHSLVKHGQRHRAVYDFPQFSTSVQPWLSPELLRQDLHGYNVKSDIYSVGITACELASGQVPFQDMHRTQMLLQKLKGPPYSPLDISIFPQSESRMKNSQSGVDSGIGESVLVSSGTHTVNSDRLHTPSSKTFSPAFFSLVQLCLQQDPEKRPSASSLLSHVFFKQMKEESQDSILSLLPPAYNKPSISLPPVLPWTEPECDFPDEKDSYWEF

Nc1ncc(-c2ccc(NS(=O)(=O)C3CC3)cc2F)cc1-c1ccc2c(c1)CCNC2=O [Compound I-51, N-(4-(6-amino-5-(1-oxo-1,2,3,4-tetrahydroisoquinolin-6-yl)pyridin-3-yl)-3-fluorophenyl) cyclopropanesulfonamide]
% inhibition (IKKe, TBK1; 10 μM, range class): 0.0% | inhibition (10 μM) (IKKe, TBK1): 26.7% | inhibition at 10 µM (JAK3 domain2; [2]): 0% | inhibition at 10 µM (JAK3 domain2; read-out: inhibition (10 μM)): 13.4% | % inhibition (MAPKAPK2, MAPKAPK3; 10 μM, range class): 0.0% | inhibition (10 μM) (MAPKAPK2, MAPKAPK3): −65.2% | inhibition at 10 µM (p70S6K; [2]): 0% | inhibition at 10 µM (p70S6K; read-out: inhibition (10 μM)): -21.6% | inhibition at 10 µM (MAST3; [2]): 0% | inhibition at 10 µM (MAST3; read-out: inhibition (10 μM)): 7% | inhibition at 10 µM (SLK; [2]): 75 to 90% | inhibition at 10 µM (SLK; read-out: inhibition (10 μM)): 85.6% | inhibition at 10 µM (MLK3; [2]): 35 to 40% | inhibition at 10 µM (MLK3; read-out: inhibition (10 μM)): 42.3% | % inhibition ([1]; 10 μM, range class): 0.0% | inhibition (10 μM) [1]: 25.8% | inhibition at 10 µM (Erk1; [2]): 0% | inhibition at 10 µM (Erk1; read-out: inhibition (10 μM)): 29.2% | inhibition at 10 µM (MARK2; [2]): 0% | inhibition at 10 µM (MARK2; read-out: inhibition (10 μM)): 24.6% | inhibition at 10 µM (RSK2 domain2; [2]): 0% | inhibition at 10 µM (RSK2 domain2; read-out: inhibition (10 μM)): 9.9% | inhibition at 10 µM (MASTL; [2]): 0% | inhibition at 10 µM (MASTL; read-out: inhibition (10 μM)): 14.6% | inhibition at 10 µM (PIK3CB; [2]): 0% | inhibition at 10 µM (PIK3CB; read-out: inhibition (10 μM)): 7.2% | inhibition at 10 µM (MST2; [2]): > 90% | inhibition at 10 µM (MST2; read-out: inhibition (10 μM)): 95.3% | % inhibition (PITSLRE; 10 μM, range class): 0.0% | inhibition (10 μM) (PITSLRE): −20.2% | inhibition at 10 µM (TLK2; [2]): 0% | inhibition at 10 µM (TLK2; read-out: inhibition (10 μM)): -20.1% | inhibition at 10 µM (MARK4; [2]): 0% | inhibition at 10 µM (MARK4; read-out: inhibition (10 μM)): 22.2% | inhibition at 10 µM (CLK2; [2]): 50 to 75% | inhibition at 10 µM (CLK2; read-out:): 65.3% | inhibition at 10 µM (STLK6; [2]): 0% | inhibition at 10 µM (STLK6; read-out: inhibition (10 μM)): -15% | inhibition at 10 µM (NEK1; [2]): 0% | inhibition at 10 µM (NEK1; read-out: inhibition (10 μM)): 30.2% | inhibition at 10 µM (PKR; [2]): 0% | inhibition at 10 µM (PKR; read-out: inhibition (10 μM)): 3.8% | inhibition at 10 µM (IRAK4; [2]): 0% | inhibition at 10 µM (IRAK4; read-out: inhibition (10 μM)): 16.4% | inhibition at 10 µM (NDR1; [2]): 0% | inhibition at 10 µM (NDR1; read-out: inhibition (10 μM)): 16.8% | % inhibition (CDK11, CDK8; 10 μM, range class): 0.0% | inhibition (10 μM) (CDK11, CDK8): 31.8% | % inhibition (p38d, p38g; 10 μM, range class): 0.0% | inhibition (10 μM) (p38d, p38g): 2.3% | inhibition at 10 µM (MST3; [2]): 50 to 75% | inhibition at 10 µM (MST3; read-out: inhibition (10 μM)): 53.3% | inhibition at 10 µM (CDC2; [2]): 0% | inhibition at 10 µM (CDC2; read-out: inhibition (10 μM)): 18.5% | inhibition at 10 µM (NDR2; [2]): 0% | inhibition at 10 µM (NDR2; read-out: inhibition (10 μM)): 8.4% | % inhibition (MST1, MST2; 10 μM, range class): >90% | inhibition (10 μM) (MST1, MST2): 98.4% | inhibition at 10 µM (PIP4K2C; [2]): 75 to 90% | inhibition at 10 µM (PIP4K2C; read-out: inhibition (10 μM)): 85.4% | inhibition at 10 µM (PI4KB; [2]): 0% | inhibition at 10 µM (PI4KB; read-out: inhibition (10 μM)): 13% | inhibition at 10 µM (PIP5K3; [2]): 75 to 90% | inhibition at 10 µM (PIP5K3; read-out: inhibition (10 μM)): 84.7% | inhibition at 10 µM (ATR; [2]): 0% | inhibition at 10 µM (ATR; read-out: inhibition (10 μM)): 15% | inhibition at 10 µM (ACK; [2]): 0% | inhibition at 10 µM (ACK; read-out: inhibition (10 μM)): -39%
